Reference: PubChem BioAssay AID1963839 (Molecular Pharmacology Branch, DTP, NCI, 2024)

Test system: 817829-284-R-J1-PDC complex spheroid viability
Assay: Anticancer human tumor 817829-284-R-J1-PDC patient-derived colon adenocarcinoma cell line growth inhibition [POLQ]
Conditions: for IC50: curve of first compound; for viability, T/C: stronger effect = lower value; active = viability on the fitted dose curve at most 10% of control; inactive = the rest
Experimental: Multicellular complex tumor spheroid response to Polymerase (POL) inhibitors (novobiocin, ART-558, RP6685) in combination with a variety of drugs and investigational agents in selected tumor cell lines
The POL inhibitors (novobiocin, ART-558, and RP6685) were evaluated both individually and in combination with standard of care and investigational anticancer small molecules within a complex spheroid model of solid tumors. . Complex spheroids include a stromal component modeled by human endothelial cells (HUVEC) and fibroblasts modeled by human mesenchymal stem cells (MSCs). The concentration ranges selected for each drug and investigational agent were based upon clinically achievable concentrations if the clinical Cmax of the agent was known.
Compounds. The drugs and investigational agents: novobiocin (NSC847541), ART-558 (NSC835418), RP-6685 (NSC848927), peposertib (NSC802822), ceralasertib (NSC780249), elimusertib (NSC800525), camonsertib (NSC841442), AZD-1390 (NSC803789), olaparib (NSC753686), talazoparib (NSC767125), rucaparib (NSC756644), sotorasib (NSC818433), MRTX-1133 (NSC836407), SN-38 (NSC673596), topotecan (NSC609699), epotoside (NSC141540), doxorubicin (NSC123127), gemcitabine (NSC613327), 5-fluorouracil (NSC19893), paclitaxel (NSC125973), vemurafenib (NSC761431), MSA-2 (NSC828583), SN-011 (NSC837082), adavosertib (NSC754352), prexasertib (NSC758257), carboplatin (NSC241240) and oxaliplatin (NSC266046), were obtained from the National Cancer Institute (NCI) Developmental Therapeutics Program Chemical Repository (21). The FDA-approved anticancer drug set is available from the Developmental Therapeutics Program at https://dtp.cancer.gov/organization/dscb/obtaining/. […] The stock solutions were prepared in dimethyl sulfoxide (DMSO, Sigma-Aldrich, St. Louis, MO, cat. D2650), except for the platinum compounds which were prepared in saline (Quality Biological, Gaithersburg, MD, cat. 114-055-101), at 800-fold the tested concentration and stored at -70 degrees C prior to their use. All drugs and investigational agents were tested over a range starting from a high concentration at or near the clinical Cmax and decreasing in half-log increments. If the clinical Cmax for an agent had not been determined, the highest concentration tested was 10 microM, except for SN-38, which was tested at a high concentration of 1 microM.
Cell Culture. All cells were maintained in an incubator at 37 degrees C and 5% CO2 with 95% humidity. The PDC lines were cultured according to standard operating procedures established by the NCI PDMR (https://pdmr.cancer.gov). Table 3 of the manuscript, lists the cell lines along with the number of the three cell types plated to form the mct-spheroids and media for tumor cell growth. After thawing, all PDC lines, except 997537-175-T-J1-PDC and 415267-285-R-J2-PDC, were cultured in Matrigel-coated flasks prepared with a working solution of 1X Ham's F-12 nutrient mix, without supplementation (Thermo Fisher Scientific, cat. 11765054), 100 U/mL penicillin-streptomycin (Thermo Fisher Scientific, cat. 15140122), and 2.5% Matrigel (Corning Inc., Corning, NY, cat. 354248) for the first three passages. The two PDC lines 997537-175-T-J1-PDC and 415267-285-R-J2-PDC were cultured on uncoated flasks. The 857933-349-R-J2-PDC line was cultured in 6C/Colon 1B media containing advanced DMEM/F-12 (Thermo Fisher Scientific, cat. 12634028), 10 mM HEPES (Thermo Fisher Scientific, cat. 15630080), 1X GlutaMAX supplement (Thermo Fisher Scientific, cat. 35050061), 0.1 mg/mL primocin (InvivoGen, San Diego, CA, cat. ant-pm-2), 10% defined fetal bovine serum, heat inactivated (HyClone Laboratories Inc., Logan, UT, cat. SH30070.03HI), 50% L-WRN conditioned media (ATCC, cat. CRL-3276), 1.25 mM N-Acetyl-L-cysteine (Sigma-Aldrich, cat. A9165), 10 mM nicotinamide (Sigma-Aldrich, cat. N0636), 1X B-27 supplement (Thermo Fisher Scientific, cat. 17504044), 1X N-2 supplement (Thermo Fisher Scientific, cat. […]

[1] = second compound 0.0316 µM, first compound 0.0316 µM
[2] = second compound 0.0316 µM, first compound 0.1 µM
[3] = second compound 0.0316 µM, first compound 0.316 µM
[4] = second compound 0.0316 µM, first compound 1 µM
[5] = second compound 0.0316 µM, first compound 3.16 µM
[6] = second compound 0.0316 µM, first compound 10 µM
[7] = second compound 0.1 µM, first compound 0.0316 µM
[8] = second compound 0.1 µM, first compound 0.1 µM
[9] = second compound 0.1 µM, first compound 0.316 µM
[10] = second compound 0.1 µM, first compound 1 µM
[11] = second compound 0.1 µM, first compound 3.16 µM
[12] = second compound 0.1 µM, first compound 10 µM
[13] = second compound 0.316 µM, first compound 0.0316 µM
[14] = second compound 0.316 µM, first compound 0.1 µM
[15] = second compound 0.316 µM, first compound 0.316 µM
[16] = second compound 0.316 µM, first compound 1 µM
[17] = second compound 0.316 µM, first compound 3.16 µM
[18] = second compound 0.316 µM, first compound 10 µM
[19] = second compound 1 µM, first compound 0.0316 µM
[20] = second compound 1 µM, first compound 0.1 µM
[21] = second compound 1 µM, first compound 0.316 µM
[22] = second compound 1 µM, first compound 1 µM
[23] = second compound 1 µM, first compound 3.16 µM
[24] = second compound 1 µM, first compound 10 µM
[25] = second compound 3.16 µM, first compound 0.0316 µM
[26] = second compound 3.16 µM, first compound 0.1 µM
[27] = second compound 3.16 µM, first compound 0.316 µM
[28] = second compound 3.16 µM, first compound 1 µM
[29] = second compound 3.16 µM, first compound 3.16 µM
[30] = second compound 3.16 µM, first compound 10 µM
[31] = second compound 10 µM, first compound 0.0316 µM
[32] = second compound 10 µM, first compound 0.1 µM
[33] = second compound 10 µM, first compound 0.316 µM
[34] = second compound 10 µM, first compound 1 µM
[35] = second compound 10 µM, first compound 3.16 µM
[36] = second compound 10 µM, first compound 10 µM
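Also: spheroids exposed to compounds for 7 days.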
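For viability, T/C in this document: 100% = DMSO vehicle-treated spheroids.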

CC(=O)O[C@H]1C(=O)[C@@]2(C)[C@H]([C@H](OC(=O)c3ccccc3)[C@]3(O)C[C@H](OC(=O)[C@H](O)[C@@H](NC(=O)c4ccccc4)c4ccccc4)C(C)=C1C3(C)C)[C@]1(OC(C)=O)CO[C@@H]1C[C@@H]2O + COC1C(OC(N)=O)C(O)C(Oc2ccc3c(O)c(NC(=O)c4ccc(O)c(CC=C(C)C)c4)c(=O)oc3c2C)OC1(C)C
< 9.49 nM: IC50 (second compound 0.0316 µM) | IC50 (second compound 0.1 µM) | IC50 (second compound 0.316 µM) | IC50 (second compound 1 µM) | IC50 (second compound 3.16 µM) | IC50 (second compound 10 µM)
active: viability, T/C (second compound 0.0316 µM, first compound 0.00949 µM) 6.3% | viability, T/C (second compound 0.0316 µM, first compound 0.03 µM) 5.64% | viability, T/C (second compound 0.0316 µM, first compound 0.0949 µM) 4.85% | viability, T/C (second compound 0.0316 µM, first compound 0.3 µM) 4.95% | viability, T/C (second compound 0.0316 µM, first compound 0.949 µM) 4.91% | viability, T/C (second compound 0.0316 µM, first compound 3 µM) 5.21% | viability, T/C (second compound 0.1 µM, first compound 0.00949 µM) 5.46% | viability, T/C (second compound 0.1 µM, first compound 0.03 µM) 4.45% | viability, T/C (second compound 0.1 µM, first compound 0.0949 µM) 4.97% | viability, T/C (second compound 0.1 µM, first compound 0.3 µM) 5.08% | viability, T/C (second compound 0.1 µM, first compound 0.949 µM) 4.85% | viability, T/C (second compound 0.1 µM, first compound 3 µM) 5.2% | viability, T/C (second compound 0.316 µM, first compound 0.00949 µM) 5.79% | viability, T/C (second compound 0.316 µM, first compound 0.03 µM) 5.7% | viability, T/C (second compound 0.316 µM, first compound 0.0949 µM) 5.32% | viability, T/C (second compound 0.316 µM, first compound 0.3 µM) 4.7% | viability, T/C (second compound 0.316 µM, first compound 0.949 µM) 4.56% | viability, T/C (second compound 0.316 µM, first compound 3 µM) 4.8% | viability, T/C (second compound 1 µM, first compound 0.00949 µM) 5.74% | viability, T/C (second compound 1 µM, first compound 0.03 µM) 5.47% | viability, T/C (second compound 1 µM, first compound 0.0949 µM) 5.82% | viability, T/C (second compound 1 µM, first compound 0.3 µM) 4.18% | viability, T/C (second compound 1 µM, first compound 0.949 µM) 4.64% | viability, T/C (second compound 1 µM, first compound 3 µM) 5.33% | viability, T/C (second compound 3.16 µM, first compound 0.00949 µM) 5.62% | viability, T/C (second compound 3.16 µM, first compound 0.03 µM) 5.09% | viability, T/C (second compound 3.16 µM, first compound 0.0949 µM) 4.79% | viability, T/C (second compound 3.16 µM, first compound 0.3 µM) 4.48% | viability, T/C (second compound 3.16 µM, first compound 0.949 µM) 4.83% | viability, T/C (second compound 3.16 µM, first compound 3 µM) 4.67% | viability, T/C (second compound 10 µM, first compound 0.00949 µM) 5.28% | viability, T/C (second compound 10 µM, first compound 0.03 µM) 5.23% | viability, T/C (second compound 10 µM, first compound 0.0949 µM) 5.99% | viability, T/C (second compound 10 µM, first compound 0.3 µM) 5.05% | viability, T/C (second compound 10 µM, first compound 0.949 µM) 4.95% | viability, T/C (second compound 10 µM, first compound 3 µM) 5.41%

COc1cc(C2c3cc4c(cc3C(OC3OC5COC(C)OC5C(O)C3O)C3COC(=O)C23)OCO4)cc(OC)c1O (stereo unspecified) + COC1C(OC(N)=O)C(O)C(Oc2ccc3c(O)c(NC(=O)c4ccc(O)c(CC=C(C)C)c4)c(=O)oc3c2C)OC1(C)C
61.4 nM: IC50 (second compound 10 µM)
74.9 nM: IC50 (second compound 3.16 µM)
38.7 nM: IC50 (second compound 0.316 µM)
77.8 nM: IC50 (second compound 1 µM)
< 31.6 nM: IC50 (second compound 0.0316 µM)
62.2 nM: IC50 (second compound 0.1 µM)
inactive: viability, T/C [1] 47.9% | viability, T/C [2] 31.3% | viability, T/C [3] 16.2% | viability, T/C [4] 14.4% | viability, T/C [7] 74.1% | viability, T/C [8] 31.2% | viability, T/C [9] 19.5% | viability, T/C [10] 19.1% | viability, T/C [11] 11.8% | viability, T/C [12] 6.51% | viability, T/C [13] 53.6% | viability, T/C [14] 34.5% | viability, T/C [15] 15.2% | viability, T/C [16] 15.6% | viability, T/C [19] 79.2% | viability, T/C [20] 42.2% | viability, T/C [21] 15.8% | viability, T/C [22] 16.3% | viability, T/C [23] 11.7% | viability, T/C [24] 6.63% | viability, T/C [25] 83.7% | viability, T/C [26] 38.8% | viability, T/C [27] 18.1% | viability, T/C [28] 19.1% | viability, T/C [29] 13.6% | viability, T/C [30] 6.38% | viability, T/C [31] 68.8% | viability, T/C [32] 36.6% | viability, T/C [33] 17.9% | viability, T/C [34] 20.1% | viability, T/C [35] 11.6%
active: viability, T/C [5] 11.2% | viability, T/C [6] 5.8% | viability, T/C [17] 12.6% | viability, T/C [18] 6.15% | viability, T/C [36] 6.29%

COc1cccc2c1C(=O)c1c(O)c3c(c(O)c1C2=O)CC(O)(C(=O)CO)CC3OC1CC(N)C(O)C(C)O1 (stereo unspecified) + COC1C(OC(N)=O)C(O)C(Oc2ccc3c(O)c(NC(=O)c4ccc(O)c(CC=C(C)C)c4)c(=O)oc3c2C)OC1(C)C
143 nM: IC50 (second compound 3.16 µM)
110 nM: IC50 (second compound 0.0316 µM)
109 nM: IC50 (second compound 1 µM)
inactive: viability, T/C [1] 17.6% | viability, T/C [2] 90.5% | viability, T/C [7] 16.5% | viability, T/C [8] 75.1% | viability, T/C [13] 14.3% | viability, T/C [14] 82% | viability, T/C [19] 22.7% | viability, T/C [20] 84.3% | viability, T/C [25] 21.1% | viability, T/C [26] 119% | viability, T/C [31] 15.7% | viability, T/C [32] 83.3%
active: viability, T/C [3] 5.53% | viability, T/C [4] 1.37% | viability, T/C [5] 0.16% | viability, T/C [6] 0.52% | viability, T/C [9] 6.74% | viability, T/C [10] 0.41% | viability, T/C [11] 0.25% | viability, T/C [12] 0.49% | viability, T/C [15] 7.31% | viability, T/C [16] 0.98% | viability, T/C [17] 0.19% | viability, T/C [18] 0.45% | viability, T/C [21] 6.03% | viability, T/C [22] 1.44% | viability, T/C [23] 0.19% | viability, T/C [24] 0.51% | viability, T/C [27] 6.03% | viability, T/C [28] 0.63% | viability, T/C [29] 0.27% | viability, T/C [30] 0.51% | viability, T/C [33] 5.98% | viability, T/C [34] 0.49% | viability, T/C [35] 0.31% | viability, T/C [36] 0.47%
< 31.6 nM: IC50 (second compound 0.1 µM) | IC50 (second compound 0.316 µM) | IC50 (second compound 10 µM)
